The record followed here is BindingDB's records for doi:10.1002/ps.3406 (2013).

Broadly, the IC50 is the concentration at which inhibition is half-maximal.

This experiment concerns the target Ryanodine receptor (Myzus persicae). Kind of experiment: Binding affinity to Myzus persicae (green peach aphid) ryanodine receptor by radioligand binding assay.

Compound `CNC(=O)c1cc(Cl)cc(C)c1NC(=O)c1cc(Br)nn1-c1ncccc1Cl` [3-bromo-N-(4-chloro-2-methyl-6-(methylcarbamoyl)phenyl)-1-(3-chloropyridin-2-yl)-1H-pyrazole-5-carboxamide] displayed an IC50 of 2 nM.
